For this assay, the target named is T1, human CaMKIIδ (Homo sapiens, UniProt Q13557).
T1 construct: Full-length, glutathione-S-transferase(GST)-tagged, human CaMKIIδ was purchased from Carna Biosciences; purchased Carna Biosciences (CaMKIIδ); Wako Pure Chemical Industries (calmodulin) 02-111
Kind of assay: Evaluation of in vitro CaMKII inhibitory activity (binding assay, TR-FRET). As to conditions: human CaMKIIδ. On the procedure: Evaluation of In Vitro CaMKII Inhibitory Activity (Binding Assay)
In vitro CaMKIIδ inhibitory activity was evaluated by a binding assay.
Full-length bovine calmodulin was purchased from Wako Pure Chemical Industries (Osaka, Japan). Terbium-labeled anti-GST anti body (Tb-anti-GST Ab) was purchased from Life Technologies (Carlsbad, CA, USA). Fluorescent probe ligand, 5,5-difluoro-7,9-dimethyl-3-(3-oxo-3-((3-((4-(3-(piperazin-1-yl)phenyl)pyrimidin-2-yl)amino)phenyl)amino) propyl)-5H-dipyrrolo[1,2-c:2′,1′-f]
Time-resolved fluorescence resonance energy transfer (TR-FRET) assay
The fluorescent probe ligand, 5,5-difluoro-7,9-dimethyl-3-(3-oxo-3-((3-((4-(3-(piperazin-1-yl)phenyl)pyrimidin-2-yl)amino)phenyl)amino) propyl)-5H-dipyrrolo[1,2-c:2′,1′-f] […] After shaded incubation of the protein-probe mixture on ice for 30 min, the premix was dispensed in the assay plate including test inhibitors with 4 fold dilution series of eight concentrations. After 1 hr incubation at room temperature, TR-FRET signals were measured in duplicate using an EnVision microplate reader (Perkin Elmer, Waltham, MA, USA).
The half maximal inhibitory concentration (IC50) of test compounds was calculated by fitting the data with the logistic equation using XLfit (IDBS, Guildford, UK).

[1] abbreviates: in vitro CaMKII inhibitory activity (binding assay), read-out: Act.
The mark [2] stands for this setting: TR-FRET binding assay, class symbols A/B/C, read-out: Act (CaMKII inhibitory activity, binding assay).

pIC50: −log10 of the molar value. Like-named read-outs stand apart in the source and are kept apart here.

Regarding `C[C@@H](Cn1cnnn1)Oc1cccc(-c2ccc3ncc(-c4ccnc(Cl)c4C#N)n3n2)c1` [compound 260], under setting [1], the pIC50 is more than 8.00.

On to `COC1CCN(C(=O)c2cccc(-c3cnn4ccc(-c5cccc(O[C@@H](C)Cn6cnnn6)c5)nc34)c2)CC1` [compound 101], for which the pIC50 under setting [2] is 7.00 to 8.00. Still for that read-out and setting: the result for `C[C@@H](Cn1cnnn1)Oc1cccc(-c2ccn3ncc(-c4cccc(C(=O)Nc5ccncc5)c4)c3n2)c1` [compound 82] reads more than 8.00; that for `C[C@@H](Cn1cnnn1)Oc1cc(-c2ccc3ncn(-c4ccc[nH]c4=O)c3n2)ccc1F` [compound 175], 7.00 to 8.00; that for `C[C@@H](Cn1cnnn1)Oc1cc(-c2ccn3ncc(-c4ccncc4)c3n2)ccc1F` [compound 21], more than 8.00. With `C[C@@H](Cn1cnnn1)Oc1cc(-c2ccc3ncc(-c4[nH]ccc(=O)c4C#N)n3n2)ccc1F` [compound 431, 2-[6-(4-fluoro-3-{[(2S)-1-(1H-tetrazol-1-yl)propan-2-yl]oxy}phenyl)imidazo[1,2-b]pyridazin-3-yl]-4-oxo-1,4-dihydropyridine-3-carbonitrile], the pIC50 under setting [1] is less than 7.00. Same read-out and setting: the result for `COc1cc(F)cc(-c2cnc3ccc(-c4cc(O[C@@H](C)Cn5cnnn5)ccn4)nn23)c1C#N` [compound 438] reads more than 8.00; that for `C[C@@H](Cn1cnnn1)Oc1cccc(-c2ccc3ncc(-c4ccc(C#N)c(F)n4)n3n2)c1` [compound 468], more than 8.00. For `C[C@@H](Cn1cnnn1)Oc1cc(-c2ccc3ncn(-c4cccc(C(=O)O)c4C#N)c3n2)ccc1F` [compound 189], the pIC50 under setting [2] was 7.00 to 8.00.

As to `CC(=O)NCCNC(=O)c1cccc(-c2cnn3ccc(-c4cccc(O[C@@H](C)Cn5cnnn5)c4)nc23)c1` [compound 90], the pIC50 under setting [2] is more than 8.00. For the compound `C[C@@H](Cn1cnnn1)Oc1cccc(-c2ccc3ncc(-c4cc(F)cnc4OCC(F)F)n3n2)c1` [compound 336], the pIC50 under setting [1] was more than 8.00.

For the compound `CCOc1ccnc(-n2cnc3ccc(-c4ccnc(O[C@@H](C)Cn5cnnn5)c4)nc32)c1C#N` [compound 375], the pIC50 under setting [1] was 7.00 to 8.00.

On to `C[C@@H](Cn1cnnn1)Oc1cncc(-c2ccc3ncc(-c4cc(F)ccc4C#N)n3n2)c1` [compound 287, 4-fluoro-2-[6-(5-{[(2S)-1-(1H-tetrazol-1-yl)propan-2-yl]oxy}pyridin-3-yl)imidazo[1,2-b]pyridazin-3-yl]benzonitrile], for which, under setting [1], the pIC50 was more than 8.00.

For the compound `C[C@@H](Cn1cnnn1)Oc1cccc(-c2ccc3ncn(-c4cc(F)ccc4C#N)c3n2)c1` [Example 291, 4-fluoro-2-[5-(3-{[(2S)-1-(1H-tetrazol-1-yl)propan-2-yl]oxy}phenyl)-3H-imidazo[4,5-b]pyridin-3-yl]benzonitrile], under setting [1], the pIC50 is more than 8.00. As for `COc1ncnc(-c2cnc3ccc(-c4cccc(O[C@@H](C)Cn5cnnn5)n4)nn23)c1C#N` [compound 459], the pIC50 under setting [1] is less than 7.00. Regarding `C[C@@H](Cc1nnn[nH]1)Oc1cccc(-c2ccn3ncc(-c4cccs4)c3n2)c1` [compound 114], the pIC50 under setting [2] is 7.00 to 8.00. Consider `C[C@@H](Cn1cnnn1)Oc1cc(-c2ccc3ncc(-c4cccc(N)c4C#N)n3n2)ccc1F` [compound 181], for which the pIC50 under setting [2] was more than 8.00. In the case of `COc1ccnc(-c2c(F)nn3ccc(-c4cccc(O[C@@H](C)Cn5cnnn5)c4)nc23)c1C#N` [compound 377], the pIC50 under setting [1] was 7.00 to 8.00. For the compound `C[C@@H](Cn1cnnn1)Oc1cc(-c2ccc3ncc(-c4cccc(OCC#N)c4C#N)n3n2)ccc1F` [compound 177], the pIC50 under setting [2] was more than 8.00. Take `C[C@@H](Cn1cnnn1)Oc1cc(-c2ccc3ncc(-c4cccc(OCC5CCN(C)C5)c4C#N)n3n2)ccc1F` (stereo partly shown) [compound 201]: under setting [2], the pIC50 was more than 8.00.

`C[C@@H](Cn1cnnn1)Oc1cccc(-c2ccn3ncc(-c4cnccc4C#N)c3n2)c1` [compound 310]: under setting [1], the pIC50 is more than 8.00.

Regarding `C[C@@H](Cn1cnnn1)Oc1cc(-c2ccc3ncc(-c4cccc(C#N)c4C#N)n3n2)ccc1F` [compound 186], the pIC50 under setting [2] was more than 8.00. On to `C[C@@H](Cn1cnnn1)Oc1cccc(-c2ccc3ncc(-c4cc(F)cc(C(F)F)c4C#N)n3n2)n1` [Example 417, 2-(difluoromethyl)-4-fluoro-6-[6-(6-{[(2S)-1-(1H-tetrazol-1-yl)propan-2-yl]oxy}pyridin-2-yl)imidazo[1,2-b]pyridazin-3-yl]benzonitrile], for which the pIC50 under setting [1] was more than 8.00. With `C[C@@H](Cn1cnnn1)Oc1cccc(-c2ccc3ncc(-c4cnccc4C#N)n3n2)c1` [Example 251, 3-[6-(3-{[(2S)-1-(1H-tetrazol-1-yl)propan-2-yl]oxy}phenyl)imidazo[1,2-b]pyridazin-3-yl]pyridine-4-carbonitrile], under setting [1], the pIC50 is more than 8.00. Take `C[C@@H](Cn1cnnn1)Oc1cccc(-c2ccn3ncc(-c4cccc(C(=O)NCCN5CCCC5=O)c4)c3n2)c1` [compound 113]: under setting [2], the pIC50 was more than 8.00. `C[C@@H](Cn1cnnn1)Oc1cncc(-c2ccc3ncn(-c4cc(F)cc(OC(F)F)c4C#N)c3n2)n1` [compound 406]: the pIC50 under setting [1] is 7.00 to 8.00.

For `COc1ccc(C#N)c(-c2cnc3ccc(-c4cccc(O[C@@H](C)Cn5cnnn5)c4)nn23)n1` [Example 313, 6-methoxy-2-[6-(3-{[(2S)-1-(1H-tetrazol-1-yl)propan-2-yl]oxy}phenyl)imidazo[1,2-b]pyridazin-3-yl]pyridine-3-carbonitrile], the pIC50 under setting [1] was more than 8.00. For the compound `COc1ncccc1-c1cnn2ccc(-c3ccc(F)c(O[C@@H](C)Cn4cnnn4)c3)nc12` [compound 166], under setting [2], the pIC50 was more than 8.00. `COc1cc(Cl)cc(-n2cnc3ccc(-c4cccc(O[C@@H](C)Cn5cnnn5)n4)nc32)c1C#N` [compound 454]: under setting [1], the pIC50 was more than 8.00. Consider `COc1ncnc(-c2cnc3ccc(-c4cccc(O[C@@H](C)Cn5cnnn5)c4)nn23)c1C#N` [Example 320, 4-methoxy-6-[6-(3-{[(2S)-1-(1H-tetrazol-1-yl)propan-2-yl]oxy}phenyl)imidazo[1,2-b]pyridazin-3-yl]pyrimidine-5-carbonitrile], for which, under setting [1], the pIC50 is more than 8.00. Consider `C[C@@H](Cn1cnnn1)Oc1cc(-c2ccn3ncc(-c4ccoc4)c3n2)ccc1F` [compound 19], for which, under setting [2], the pIC50 was more than 8.00. For the compound `COCCC(=O)Nc1cccc(-c2cnc3ccc(-c4ccc(F)c(O[C@@H](C)Cn5cnnn5)c4)nn23)c1C#N` [compound 182], the pIC50 under setting [2] was more than 8.00. For `COc1cc(F)cc(-c2cnc3ccc(-c4cncc(O[C@@H](C)Cn5cnnn5)n4)nn23)c1C#N` [Example 392, 4-fluoro-2-methoxy-6-[6-(6-{[(2S)-1-(1H-tetrazol-1-yl)propan-2-yl]oxy}pyrazin-2-yl)imidazo[1,2-b]pyridazin-3-yl]benzonitrile], the pIC50 under setting [1] was more than 8.00. As to `C[C@@H](Cn1cnnn1)Oc1cccc(-c2ccc3ncc(-c4ncnc(N(C)C)c4C#N)n3n2)c1` [compound 372], the pIC50 under setting [1] was 7.00 to 8.00. Take `C[C@@H](Cn1cnnn1)Oc1cc(-c2ccc3ncn(-c4cnn(C)c4)c3n2)ccc1F` [compound 120]: the pIC50 under setting [2] was 7.00 to 8.00. Same read-out and setting: the result for `COCOc1cccc(-c2cnc3ccc(-c4ccc(F)c(O[C@@H](C)Cn5cnnn5)c4)nn23)c1C#N` [compound 169] reads more than 8.00; that for `C[C@@H](Cn1cnnn1)Oc1cc(-c2ccn3ncc(-c4cccnc4)c3n2)ccc1F` [compound 20], more than 8.00.

The values above are taken from patent publication US12528816B2, “Substituted imidazo [1,2-b] pyridazines and [1, 2, 4] triazolo [ 4,3-b] pyridazines as camkii inhibitors” (Cardurion Pharmaceuticals, INC., priority 2020, dated 2026).
